Tested on: Patients with glaucoma
Experiment: Intraocular pressure of glaucoma patients measured by applanation tonometry during eyedrop treatment
Assay type: in vivo, human
Settings: average of last six measurements
Experimental: Patients with glaucoma which had led to glaucomatous damage were treated. All the patients had previously been treated with timolol 0.5% eyedrops, and in some cases with a combination therapy of timolol 0.5% and another antiglaucomatous agent. The initial state of the intraocular pressure was measured during the previous therapy by determining the average of the last six measurements during the previous therapy. Two groups of patients were then treated according to the invention. […] They formed the group of decompensated glaucomas. Group 2 comprised patients who had normalized intraocular pressures on treatment with timolol 0.5%. They formed the group of compensated glaucomas. […] A third group formed of 11 patients was treated in the same manner with eyedrops which contained only 0.5% lactalbumin hydrolyzate fraction from example 5. The intraocular pressure was checked initially after one day, after two days and then weekly. The measurements of intraocular pressure took place at various times of day (morning, midday, late afternoon) by applanation tonometry. In total, 18 patients with an average age of 56.6 years, of whom 8 were male and 10 patients were female, were treated for 9 weeks.

**Q.** CC(C)(C)NC[C@H](O)COc1nsnc1N1CCOCC1 [timolol] was tested. Which “average intraocular pressure by applanation before the treatment according to the invention” value (group 1 decompensated glaucomas, on timolol 0.5% or combination therapy with another antiglaucomatous agent, range of variation 3.6 mmHg) did it give?
**A.** 26.4 mmHg

**Q.** What about the “average intraocular pressure by applanation before the treatment according to the invention” value (group 2 compensated glaucomas, on timolol 0.5%, range of variation 1.6 mmHg) of the same molecule?
**A.** 19.2 mmHg

Source: patent publication US20050043214A1, “Antiglaucomatous agent and use thereof” (priority 2001, published 2005)
